The IC50 is the concentration that inhibits the measured activity by half. A low value points to greater potency. As usually defined, the inhibition is the relative decrease from the control value, in per cent. Lower therefore signals little suppression.

The record followed here is patent publication US6512000B1, “Aminocarbonyl-substituted benzimidazoles having tryptase-inhibitory activity” (Boehringer Ingelheim Pharma KG, priority 1999, dated 2003).

This assay has as its target T1, rh beta tryptase (Homo sapiens, UniProt P20231).
T1 construct: purchased Promega
In words: Tryptase inhibition test (cleavage of N-p-tosyl-Gly-Pro-Lys-para-nitroaniline, p-nitroaniline measured at 405 nm). The format is biochemical. To be noted: pH 7.4, 37° C.; for IC50: concentration at which 50% of the tryptase enzyme activity is inhibited, substrate 0.6 mM; for inhibition at 10 µM / % Inhibition (10 μM): inhibition of rh beta tryptase at 10 μM test substance, substrate N-p-tosyl-Gly-Pro-Lys-para-nitroaniline 0.6 mM, 5 minutes. A digest of the protocol: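 Recombinant human beta tryptase (0.91 U/ml) in 100 mM Tris HCl pH 7.4 with 5 mM calcium and 100 mg/ml heparin; compounds pre-incubated 5 min, then 0.6 mM tosyl-Gly-Pro-Lys-pNA added, 5 min at 37 °C. p-Nitroaniline read at 405 nm; % inhibition at 10 μM, IC50 determined when inhibition exceeded 70%.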

Where a name gives a salt, the structure may show the parent alone.

T1 sequence (P20231 31-275): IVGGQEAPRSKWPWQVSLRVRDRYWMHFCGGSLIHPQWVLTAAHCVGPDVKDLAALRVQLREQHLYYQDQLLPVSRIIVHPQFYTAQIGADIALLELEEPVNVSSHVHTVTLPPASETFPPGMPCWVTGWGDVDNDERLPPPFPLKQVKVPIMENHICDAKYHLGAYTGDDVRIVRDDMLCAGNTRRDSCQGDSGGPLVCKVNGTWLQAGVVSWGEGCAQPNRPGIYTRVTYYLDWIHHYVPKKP

`CCOc1ccccc1N1CCN(C(=O)c2ccc3c(c2)nc(CCc2ccc(C(=N)N)cc2)n3C)CC1` [Example 54, 2-[2-(4-Amidinophenyl)-ethyl]-1-methyl-benzimidazol-5-yl-carboxylic Acid-[N′-(2-ethoxyphenyl)-piperazide]]: the IC50 was found to be 305 nM. In other words, the sub-micromolar range. In the case of `N=C(N)c1ccc(CCc2nc3cc(C(=O)N(Cc4ccc(CN)cc4)Cc4cccc(C(F)(F)F)c4)ccc3n2CCc2ccccc2)cc1` [Example 203, 2-[2-(4-amidinophenyl)ethyl]-1-(2-phenylethyl)-benzimidazol-5-yl-carboxylic acid-N-[4-(amino-methyl)-benzyl]-N-(3-trifluoromethylbenzyl)-amide], testing at 10 µM gave an inhibition of 53%. In the case of “2-[2-(4-amidinophenyl)ethyl]-1-(2-cyclohexylethyl)-benzimidazol-5-yl-carboxylic acid-N-[4-(amino-methyl)-benzyl]-N-(2-pyridyl)-amide [Example 121]”, the “% Inhibition (10 μM)” value came out at 52%. In turn, `CCCCN(CCCC)CCCn1c(CCc2ccc(C(=N)N)cc2)nc2cc(C(=O)N(Cc3ccc(CN)cc3)Cc3ccc4ccccc4c3)ccc21` [Example 231, 2-[2-(4-amidinophenyl)ethyl]-1-(3-di-n-butylaminopropyl)-benzimidazol-5-yl-carboxylic acid-N-[4-(amino-methyl)-benzyl]-N-(2-naphthylmethyl)-amide] had an inhibition at 10 µM of 54%.

Molecule `CCOCCCn1c(CCc2ccc(C(=N)N)cc2)nc2cc(C(=O)N(CCN)Cc3cccc(C(F)(F)F)c3)ccc21` [Example 390, 2-[2-(4-amidinophenyl)ethyl]-1-(3-ethoxypropyl)-benzimidazol-5-yl-carboxylic acid-N-(2-aminoethyl)-N-(3-trifluoromethylbenzyl)-amide] registered a half-inhibitory concentration (IC50) of 402 nM and an inhibition at 10 µM of 60%. On the same counts, the results for `CCOCCCn1c(CCc2ccc(C(=N)N)cc2)nc2cc(C(=O)N(CCN)Cc3ccccc3)ccc21` [Example 294, 2-[2-(4-amidinophenyl)ethyl]-1-(3-ethoxypropyl)-benzimidazol-5-yl-carboxylic acid-N-(2-aminoethyl)-N-benzyl-amide] are 350 nM and 69%. For the molecule `N=C(N)c1ccc(CCc2nc3cc(C(=O)N(Cc4ccc(Cl)cc4)Cc4ccc(CN)cc4)ccc3n2CCCN2CCOCC2)cc1` [Example 193, 2-[2-(4-amidinophenyl)ethyl]-1-[3-(morpholin-4-yl)-propyl]-benzimidazol-5-yl-carboxylic acid-N-[4-(amino-methyl)-benzyl]-N-(4-chlorbenzyl)-amide], the “% Inhibition (10 μM)” value turned out to be 59%. With `CCCCN(Cc1ccc(CN)cc1)C(=O)c1ccc2c(c1)nc(CCc1ccc(C(=N)N)cc1)n2CC1CC1` [Example 90, 2-[2-(4-amidinophenyl)ethyl]-1-cyclopropylmethyl-benzimidazol-5-yl-carboxylic acid-N-[4-(amino-methyl)-benzyl]-N-n-butyl-amide], the inhibition at 10 µM was 67%. On the same count and under the same terms, with `N=C(N)c1ccc(CCc2nc3cc(C(=O)N(Cc4ccc(CN)cc4)CC4CCCCC4)ccc3n2CCc2ccccc2)cc1` [Example 155, 2-[2-(4-amidinophenyl)ethyl]-1-(2-phenylethyl)-benzimidazol-5-yl-carboxylic acid-N-[4-(amino-methyl)-benzyl]-N-cyclohexylmethyl-amide] the figure was 57%. Take `N=C(N)c1ccc(CCc2nc3cc(C(=O)N(CCN)Cc4ccccc4)ccc3n2CCCNC(=O)Cc2ccccc2)cc1` [Example 296, 2-[2-(4-amidinophenyl)ethyl]-1-[3-(benzylcarbonylamino)-propyl]-benzimidazol-5-yl-carboxylie acid-N-(2-aminoethyl)-N-benzyl-amide]: the “% Inhibition (10 μM)” value is on record as 51%. With `Cc1ccccc1N1CCCN(C(=O)c2ccc3c(c2)nc(CCc2ccc(CN)cc2)n3C)CC1` [Example 41, 2-[2-(4-Aminomethyl-phenyl)-ethyl]-1-methyl-benzimidazol-5-yl-carboxylic Acid-[N′-(2-methyl-phenyl)-diazepide]-hydrochloride], the IC50 turned out to be 172 nM. `CCOCCCn1c(CCc2ccc(C(=N)N)cc2)nc2cc(C(=O)N(CCN)CCCc3ccccc3)ccc21` [Example 358, 2-[2-(4-amidinophenyl)ethyl]-1-(3-ethoxypropyl)-benzimidazol-5-yl-carboxylic acid-N-(2-aminoethyl)-N-(3-phenylpropyl)-amide] registered an IC50 of 169 nM and an inhibition at 10 µM of 77%.

The molecule `Cn1c(CCc2ccc(C(=N)N)cc2)nc2cc(C(=O)N(CCC(c3ccccc3)c3ccccc3)Cc3ccc(C(=N)N)cc3)ccc21` [Example 17, 2-[2-(4-Amidinophenyl)-ethyl]-1-methyl-benzimidazol-5-yl-carboxylic Acid-N-(4-amidinobenzyl)-N-(3,3-diphenylpropyl)-amide-dihydrochloride] showed an IC50 of 107 nM. In other words, the sub-micromolar range. For `Cc1ccccc1N1CCN(CCCn2c(CCc3ccc(C(=N)N)cc3)nc3cc(C(=O)N(CCN)Cc4ccc(Cl)cc4)ccc32)CC1` [Example 384, 2-[2-(4-amidinophenyl)ethyl]-1-{3-[4-(2-methylphenyl)-piperazin-1-yl]-propyl} -benzimidazol-5-yl-carboxylic acid-N-(2-aminoethyl)-N-(4-chlorbenzyl)-amide], the “% Inhibition (10 μM)” value is 59%. `N=C(N)c1ccc(CCc2nc3cc(C(=O)N(CCCc4ccccc4)Cc4ccc(CN)cc4)ccc3n2CCCN2CCOCC2)cc1` [Example 177, 2-[2-(4-amidinophenyl)ethyl]-1-[3-(morpholin-4-yl)-propyl]-benzimidazol-5-yl-carboxylic acid-N-[4-(amino-methyl)-benzyl]-N-(3-phenylpropyl)-amide] had an inhibition at 10 µM of 68%.

For “2-[2-(4-amidinophenyl)ethyl]-1-(3-ethoxypropyl)-benzimidazol-5-yl-carboxylic acid-N-[4-(amino-methyl)-benzyl]-N-(3-pyridyl)-amide [Example 134]”, the IC50 was 231 nM and the “% Inhibition (10 μM)” value was determined as 69%. The molecule `CN(CCC(=N)N)C(=O)c1ccc2c(c1)nc(CCc1ccc(C(=N)N)cc1)n2C` [Example 7, 2-[2-(4-Amidinophenyl)-ethyl]-1-methyl-benzimidazol-5-yl-carboxylic Acid-N-(2-amidinoethyl)-N-methyl-amide-dihydrochloride] yielded a 50% inhibitory concentration (IC50) of 670 nM. `N=C(N)c1ccc(CCc2nc3cc(C(=O)N(CCN)CCCc4ccccc4)ccc3n2CCCN2CCOCC2)cc1` [Example 369, 2-[2-(4-amidinophenyl)ethyl]-1-[3-(morpholin-4-yl)-propyl]-benzimidazol-5-yl-carboxylic acid-N-(2-aminoethyl)-N-(3-phenylpropyl)-amide] returned an inhibition at 10 µM of 57%. On the same count and under the same terms, the value for `CCCCN(Cc1ccc(CN)cc1)C(=O)c1ccc2c(c1)nc(CCc1ccc(C(=N)N)cc1)n2CCCN1CCN(c2ccccc2C)CC1` [Example 96, 2-[2-(4-amidinophenyl)ethyl]-1-{3-[4-(2-methylphenyl)-piperazin-1-yl]-propyl}-benzimidazol-5-yl-carboxylic acid-N-[4-(amino-methyl)-benzyl]-N-n-butyl-amide] was 55%; that for `CCCCN(Cc1ccc(CN)cc1)C(=O)c1ccc2c(c1)nc(CCc1ccc(C(=N)N)cc1)n2CCc1ccccc1` [Example 91, 2-[2-(4-amidinophenyl)ethyl]-1-(2-phenylethyl)-benzimidazol-5-yl-carboxylic acid-N-[4-(amino-methyl)-benzyl]-N-n-butyl-amide] was 62%. Regarding `CCCCN(Cc1ccc(CN)cc1)C(=O)c1ccc2c(c1)nc(CCc1ccc(C(=N)N)cc1)n2CCCNC(=O)Cc1ccccc1` [Example 88], the “% Inhibition (10 μM)” value is 70%.

In turn, `Cn1c(CCc2ccc(C(=N)N)cc2)nc2cc(C(=O)N3CCN(C4CCCC4)CC3)ccc21` [Example 50, 2-[2-(4-Amidinophenyl)-ethyl]-1-methyl-benzimidazol-5-yl-carboxylic Acid-[N′-(cyclopentyl)-piperazide]] yielded an IC50 of 176 nM. That is a sub-micromolar value. `COC(=O)c1ccc(CN(Cc2ccc(CN)cc2)C(=O)c2ccc3c(c2)nc(CCc2ccc(C(=N)N)cc2)n3Cc2ccc(C)cc2)cc1` [Example 445, 2-[2-(4-amidinophenyl)ethyl]-1-(4-methylbenzyl)-benzimidazol-5-yl-carboxylic acid-N-[4-(amino-methyl)-benzyl]-N-[4-(methoxycarbonyl)-benzyl]-amide] had an inhibition at 10 µM of 52%. Same read-out and setting: with `N=C(N)c1ccc(CCc2nc3cc(C(=O)N(Cc4ccccc4)Cc4ccc(CN)cc4)ccc3n2CC2CCCO2)cc1` (stereo not shown) [Example 114, 2-[2-(4-amidinophenyl)ethyl]-1-(tetrahydrofuran-2-yl-methyl)-benzimidazol-5-yl-carboxylic acid-N-[4-(amino-methyl)-benzyl]-N-benzyl-amide] the figure was 58%; with `N=C(N)c1ccc(CCc2nc3cc(C(=O)N(Cc4ccc(CN)cc4)Cc4cccc(C(F)(F)F)c4)ccc3n2CCCN2CCOCC2)cc1` [Example 209, 2-[2-(4-amidinophenyl)ethyl]-1-[3-(morpholin-4-yl)-propyl]-benzimidazol-5-yl-carboxylic acid-N-[4-(amino-methyl)-benzyl]-N-(3-trifluoromethylbenzyl)-amide], 61%; with `N=C(N)c1ccc(CCc2nc3cc(C(=O)N(CCCc4ccccc4)Cc4ccc(CN)cc4)ccc3n2CCC2CCCCC2)cc1` [Example 169, 2-[2-(4-amidinophenyl)ethyl]-1-(2-cyclohexylethyl)-benzimidazol-5-yl-carboxylic acid-N-[4-(amino-methyl)-benzyl]-N-(3-phenylpropyl)-amide], 52%. Take “2-[2-(4-amidinophenyl)ethyl]-1-{3-[4-(2-methylphenyl)-piperazin-1-yl]-propyl}-benzimidazol-5-yl-carboxylic acid-N-[4-(amino-methyl)-benzyl]-N-(3-pyridyl)-amide [Example 144]”: the “% Inhibition (10 μM)” value was determined as 54%.
